Results on 18 compounds are retold here after patent publication US4576948A, “Composition and method for inhibiting terminal deoxyribonucleotidyl transferase activity” (Trustees Boston University, priority 1983, dated 1986).

Assay [1] deals with T1, HeLa cell polymerase α (Homo sapiens, UniProt P09884). To be noted: background statement; no other mammalian cell DNA polymerase inhibited; cited from earlier work.
Assay [2] relates to HeLa cells. As to conditions: background statement, 'in vivo'; cited from earlier work.
Assay [3] has as its target T1, HeLa cell polymerase α. Kind of assay: DNA polymerase α assay, standard assay conditions. Type of assay: biochemical. To be noted: for effect on HeLa cell polymerase α (in words): 400 μM; for CMP Incorporated, Pol α: additive at 400 M (so in the source), DMSO control 15,040. The procedure:
(§1) TdT was purified from normal calf thymus gland by a procedure utilizing the successive steps of homogenization, ion exchange […] and gel filtration. Bollum et al, "The Enzymes", (R. D. Boxer Ed.) pp. 145-171, Academic Press, New York. TdT was assayed at 35° C. for 1 hour in 0.1 ml total volume of a reaction mixture comprising 0.05 M Tris-HCl (pH 8.3), 2 mM […], 0.6 mM MnCl2, 10 μg bovine serum albumin (BSA), 1 μg oligodA14-18, 10 μM ^3 H-dGTP (d-triphosphate) and chelex distilled H2 O. When used, the 6-anilinouracil derivates were added at various concentrations in 5 μl DMSO per 100 μl reaction mix. Other DNA polymerases (α, β, and γ) were assayed using standard assay conditions, as previously described by Wright, Baril and Brown, Nucleic Acids Research, Vol. 8, No. 1, pp. 99-109, 1980.

The subject of another assay is L1210 cells. The assay can be described thus: Inhibition of cell proliferation, L1210 (TdT-negative). Type of assay: cell-based, Mouse. To be noted: even at 400 μM; 1% DMSO; viable cells at 72 hours. How it is done:
(§2) HeLa cells, El-4cells, L1210 cells were grown in suspended cell culture under standard conditions in RPMI medium, at 37° C. in moist air containing 5% CO2. All inhibitions were performed using a final concentration of 1% DMSO as inhibitor solvent. Control cells were therefore grown in the presence of 1% DMSO.
(§3) Compound GW18C (6-(p-aminoanilo) uracil) was prepared as a 40 mM stock solution in pre-heated DMSO. This stock solution was progressively diluted to give a range of operating inhibitory concentrations between 1×10^-9 M and […]. Inhibition was measured by comparing the number of viable cells in control cultures at the end of 72 hours with the number in cultures exposed to inhibitor.

The target in assay [4] is T2, terminal deoxyribonucleotidyl transferase (TdT) (Bos taurus, UniProt P06526).
T2 construct: classical preparation may be proteolysed two-subunit form of one gene product
Kind of assay: TdT assay (3H-dGMP incorporation) with purified TdT. To be noted: for CMP 3H--dGMP inc.: 200 μM compound, 35° C., 1 hour, 10 μM 3H-dGTP, DMSO only control 12,131; for CMP Incorporated, TdT: additive at 400 M (so in the source), DMSO control 12,131; for TdT inhibition (in words): concentration not given. Format: biochemical, calf. The procedure:
as §1
Reaction conditions used were as noted above.

For the next assay, the target named is HeLa cell polymerase β (Homo sapiens, UniProt P06746). The assay can be described thus: DNA polymerase β assay, standard assay conditions. Type of assay: biochemical. As to conditions: for effect on HeLa cell polymerase β (in words): 400 μM; for CMP Incorporated, Pol β: additive at 400 M (so in the source), DMSO control 5,221. The procedure:
as §1

The next assay concerns the target T3, HeLa cell polymerase γ (Homo sapiens, UniProt P54098).
T3 sequence (P54098 1-1239): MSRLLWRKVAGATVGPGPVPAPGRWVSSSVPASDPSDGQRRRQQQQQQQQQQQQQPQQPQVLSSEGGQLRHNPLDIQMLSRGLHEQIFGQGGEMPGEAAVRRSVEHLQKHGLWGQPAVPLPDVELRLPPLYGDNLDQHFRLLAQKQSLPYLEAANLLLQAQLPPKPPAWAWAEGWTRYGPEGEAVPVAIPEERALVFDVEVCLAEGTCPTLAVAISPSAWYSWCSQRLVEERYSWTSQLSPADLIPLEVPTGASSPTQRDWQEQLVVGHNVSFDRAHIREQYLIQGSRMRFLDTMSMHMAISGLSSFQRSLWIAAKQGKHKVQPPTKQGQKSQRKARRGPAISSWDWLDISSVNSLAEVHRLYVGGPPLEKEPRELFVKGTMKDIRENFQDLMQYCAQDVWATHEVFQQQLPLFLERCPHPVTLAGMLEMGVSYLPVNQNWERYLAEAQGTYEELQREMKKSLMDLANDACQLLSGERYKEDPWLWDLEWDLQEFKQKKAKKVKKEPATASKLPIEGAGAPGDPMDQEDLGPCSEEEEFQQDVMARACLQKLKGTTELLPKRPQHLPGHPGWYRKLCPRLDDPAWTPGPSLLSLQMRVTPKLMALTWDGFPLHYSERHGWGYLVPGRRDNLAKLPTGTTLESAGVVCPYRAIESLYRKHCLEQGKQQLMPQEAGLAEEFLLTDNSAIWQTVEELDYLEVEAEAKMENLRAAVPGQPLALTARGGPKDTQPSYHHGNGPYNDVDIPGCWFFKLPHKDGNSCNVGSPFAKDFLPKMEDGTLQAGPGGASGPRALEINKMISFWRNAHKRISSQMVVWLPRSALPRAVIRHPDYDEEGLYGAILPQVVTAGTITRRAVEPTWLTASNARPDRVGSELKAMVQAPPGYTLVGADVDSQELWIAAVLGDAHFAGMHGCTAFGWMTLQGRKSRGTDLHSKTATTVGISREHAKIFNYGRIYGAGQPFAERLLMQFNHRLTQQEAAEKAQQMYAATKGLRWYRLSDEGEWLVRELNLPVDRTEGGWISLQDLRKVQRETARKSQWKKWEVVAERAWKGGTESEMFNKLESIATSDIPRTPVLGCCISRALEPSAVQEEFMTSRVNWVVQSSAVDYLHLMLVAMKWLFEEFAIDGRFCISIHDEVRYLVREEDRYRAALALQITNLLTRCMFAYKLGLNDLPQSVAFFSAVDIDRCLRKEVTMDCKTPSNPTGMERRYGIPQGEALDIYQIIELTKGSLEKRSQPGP
T3 sequence (Q9UHN1 2-485 partner): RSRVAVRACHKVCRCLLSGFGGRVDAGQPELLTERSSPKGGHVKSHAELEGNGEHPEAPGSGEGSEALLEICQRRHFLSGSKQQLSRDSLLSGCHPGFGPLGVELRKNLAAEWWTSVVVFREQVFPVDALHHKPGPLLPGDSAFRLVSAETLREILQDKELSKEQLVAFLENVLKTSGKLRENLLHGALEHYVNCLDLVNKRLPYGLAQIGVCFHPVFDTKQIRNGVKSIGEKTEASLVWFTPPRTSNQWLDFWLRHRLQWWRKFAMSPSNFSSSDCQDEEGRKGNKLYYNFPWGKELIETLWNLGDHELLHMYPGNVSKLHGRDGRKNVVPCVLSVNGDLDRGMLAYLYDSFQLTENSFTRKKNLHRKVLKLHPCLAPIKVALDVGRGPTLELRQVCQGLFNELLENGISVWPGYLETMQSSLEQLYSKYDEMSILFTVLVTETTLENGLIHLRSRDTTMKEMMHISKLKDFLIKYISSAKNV
Kind of assay: DNA polymerase γ assay, standard assay conditions. Format: biochemical. To be noted: for effect on HeLa cell polymerase γ (in words): 400 μM; for CMP Incorporated, Pol γ: additive at 400 M (so in the source), DMSO control 7,490. How it is done: as §1

The next assay deals with EL-4. Kind of assay: Inhibition of cell proliferation, EL-4 (TdT-positive). Format: cell-based, Mouse. The procedure: as §2, §3
Assay [5] concerns HeLa cells. The assay can be described thus: Inhibition of cell proliferation, HeLa (TdT-negative). Type of assay: cell-based, Human. As to conditions: even at 400 μM; 1% DMSO; viable cells at 72 hours. The procedure: as §2, §3

T1 sequence (P09884 whole entry): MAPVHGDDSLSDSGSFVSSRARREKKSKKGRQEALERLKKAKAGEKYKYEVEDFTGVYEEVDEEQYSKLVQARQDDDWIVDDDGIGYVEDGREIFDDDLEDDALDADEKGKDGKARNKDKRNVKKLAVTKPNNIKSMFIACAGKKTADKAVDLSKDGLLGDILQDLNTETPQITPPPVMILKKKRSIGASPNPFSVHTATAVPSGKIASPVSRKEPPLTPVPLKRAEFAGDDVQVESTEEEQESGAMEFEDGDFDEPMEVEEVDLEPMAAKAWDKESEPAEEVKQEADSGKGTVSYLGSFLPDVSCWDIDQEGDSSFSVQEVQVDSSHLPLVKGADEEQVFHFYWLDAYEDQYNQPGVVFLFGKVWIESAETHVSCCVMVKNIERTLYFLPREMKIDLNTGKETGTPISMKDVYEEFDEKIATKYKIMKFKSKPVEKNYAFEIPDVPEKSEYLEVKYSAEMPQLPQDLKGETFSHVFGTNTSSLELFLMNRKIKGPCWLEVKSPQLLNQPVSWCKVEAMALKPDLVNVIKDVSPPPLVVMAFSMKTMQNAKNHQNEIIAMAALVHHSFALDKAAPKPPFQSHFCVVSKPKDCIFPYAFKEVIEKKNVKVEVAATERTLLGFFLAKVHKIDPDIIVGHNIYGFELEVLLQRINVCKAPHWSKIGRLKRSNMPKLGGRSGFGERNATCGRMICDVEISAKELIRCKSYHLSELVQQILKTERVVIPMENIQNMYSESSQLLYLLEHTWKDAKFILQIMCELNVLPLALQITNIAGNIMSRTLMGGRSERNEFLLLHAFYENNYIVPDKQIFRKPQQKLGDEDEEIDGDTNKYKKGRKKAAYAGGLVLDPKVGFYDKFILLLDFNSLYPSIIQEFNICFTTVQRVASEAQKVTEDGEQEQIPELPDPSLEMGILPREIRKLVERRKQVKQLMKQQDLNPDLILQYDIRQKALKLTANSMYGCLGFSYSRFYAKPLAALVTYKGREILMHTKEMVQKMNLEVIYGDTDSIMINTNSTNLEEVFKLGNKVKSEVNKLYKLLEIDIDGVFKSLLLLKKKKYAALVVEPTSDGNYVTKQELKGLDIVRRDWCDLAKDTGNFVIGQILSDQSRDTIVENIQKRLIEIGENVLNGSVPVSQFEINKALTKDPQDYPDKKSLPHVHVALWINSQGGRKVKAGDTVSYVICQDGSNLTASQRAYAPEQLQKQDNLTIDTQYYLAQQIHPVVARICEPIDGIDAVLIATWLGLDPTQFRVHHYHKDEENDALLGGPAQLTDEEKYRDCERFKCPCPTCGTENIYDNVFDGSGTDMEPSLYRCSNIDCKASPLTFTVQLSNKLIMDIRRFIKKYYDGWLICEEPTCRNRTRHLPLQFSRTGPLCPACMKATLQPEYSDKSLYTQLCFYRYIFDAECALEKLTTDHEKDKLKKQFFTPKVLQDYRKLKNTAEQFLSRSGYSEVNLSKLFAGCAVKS
T1 sequence (Q14181 whole entry partner): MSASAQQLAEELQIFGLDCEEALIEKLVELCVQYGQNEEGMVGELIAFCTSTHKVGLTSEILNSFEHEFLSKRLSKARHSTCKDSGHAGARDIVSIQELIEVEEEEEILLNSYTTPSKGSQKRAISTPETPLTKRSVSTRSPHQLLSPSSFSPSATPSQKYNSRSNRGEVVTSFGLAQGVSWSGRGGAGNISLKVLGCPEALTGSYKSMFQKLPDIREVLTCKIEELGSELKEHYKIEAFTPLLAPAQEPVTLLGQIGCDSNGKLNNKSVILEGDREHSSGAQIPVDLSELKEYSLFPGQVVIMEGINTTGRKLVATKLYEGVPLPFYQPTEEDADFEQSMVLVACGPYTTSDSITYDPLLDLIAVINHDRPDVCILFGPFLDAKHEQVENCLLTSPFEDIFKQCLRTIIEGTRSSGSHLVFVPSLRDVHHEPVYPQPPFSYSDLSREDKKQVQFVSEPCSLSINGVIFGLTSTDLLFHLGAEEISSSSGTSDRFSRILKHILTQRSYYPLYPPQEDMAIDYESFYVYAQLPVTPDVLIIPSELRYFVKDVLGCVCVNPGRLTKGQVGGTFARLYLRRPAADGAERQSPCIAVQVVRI
T1 sequence (P49642 whole entry partner): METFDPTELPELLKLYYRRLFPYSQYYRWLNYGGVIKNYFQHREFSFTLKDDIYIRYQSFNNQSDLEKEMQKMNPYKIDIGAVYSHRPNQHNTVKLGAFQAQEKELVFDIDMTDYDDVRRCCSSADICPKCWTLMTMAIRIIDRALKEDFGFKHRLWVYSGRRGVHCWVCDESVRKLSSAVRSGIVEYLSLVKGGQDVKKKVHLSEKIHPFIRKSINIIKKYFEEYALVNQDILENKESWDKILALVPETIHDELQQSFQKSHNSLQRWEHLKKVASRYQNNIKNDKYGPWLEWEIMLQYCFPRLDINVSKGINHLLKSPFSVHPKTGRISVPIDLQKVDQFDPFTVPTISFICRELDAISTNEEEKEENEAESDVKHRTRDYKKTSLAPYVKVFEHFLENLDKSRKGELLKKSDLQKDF
T1 sequence (P49643 whole entry partner): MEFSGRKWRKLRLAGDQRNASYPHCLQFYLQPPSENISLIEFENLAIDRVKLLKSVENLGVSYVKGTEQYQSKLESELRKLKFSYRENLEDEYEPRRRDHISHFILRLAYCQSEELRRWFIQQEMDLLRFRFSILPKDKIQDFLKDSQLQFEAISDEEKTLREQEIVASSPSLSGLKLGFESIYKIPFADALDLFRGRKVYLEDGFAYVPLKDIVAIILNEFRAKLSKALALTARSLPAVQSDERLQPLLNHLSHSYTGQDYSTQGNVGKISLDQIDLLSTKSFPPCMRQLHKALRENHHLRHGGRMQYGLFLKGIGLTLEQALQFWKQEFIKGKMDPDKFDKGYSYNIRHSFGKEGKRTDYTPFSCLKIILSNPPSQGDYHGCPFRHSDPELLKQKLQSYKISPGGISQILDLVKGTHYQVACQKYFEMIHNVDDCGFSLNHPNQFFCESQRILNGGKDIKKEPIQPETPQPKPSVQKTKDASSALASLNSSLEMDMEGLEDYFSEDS
T2 sequence (P06526 whole entry): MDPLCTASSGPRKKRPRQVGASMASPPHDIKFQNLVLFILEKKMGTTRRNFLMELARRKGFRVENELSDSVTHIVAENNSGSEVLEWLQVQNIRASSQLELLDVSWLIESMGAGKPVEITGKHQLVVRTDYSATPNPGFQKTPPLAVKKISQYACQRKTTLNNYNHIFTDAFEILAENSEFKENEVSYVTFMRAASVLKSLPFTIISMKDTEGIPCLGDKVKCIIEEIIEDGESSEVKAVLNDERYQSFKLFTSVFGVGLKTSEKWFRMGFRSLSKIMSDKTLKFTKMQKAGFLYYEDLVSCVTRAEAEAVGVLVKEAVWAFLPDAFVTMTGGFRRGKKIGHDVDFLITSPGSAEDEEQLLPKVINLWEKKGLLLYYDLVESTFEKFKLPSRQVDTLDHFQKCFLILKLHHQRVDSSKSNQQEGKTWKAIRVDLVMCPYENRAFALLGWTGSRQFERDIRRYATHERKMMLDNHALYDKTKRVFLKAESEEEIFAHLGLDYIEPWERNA

Take `CCCCc1ccc(Nc2cc(=O)[nH]c(=O)[nH]2)cc1` [6-(p-n-butylanilino) uracil]: the “inhibition of DNA polymerase alpha of HeLa cells (in words)” value at HeLa cell polymerase α [1] is “specific inhibitor”. Further, the “inhibition of HeLa cell division and DNA synthesis (in words)” value in the assay on HeLa cells [2] is recorded as “selective inhibitor”.

The inhibition is the drop in the measured response relative to a control, in per cent. On to `Nc1ccc(Nc2cc(=O)[nH]c(=O)[nH]2)cc1` [GW-18C, 6-(p-aminoanilo)uracil], for which, on HeLa cell polymerase α [3], the “effect on HeLa cell polymerase α (in words)” value is given as “not effected” and the “CMP Incorporated, Pol α” value is 15,417 CMP. In addition, the “growth of L1210 cells (in words)” value in the assay on L1210 cells is listed as “not inhibited”. In assay [4], the “CMP 3H--dGMP inc.” value is on record as 5,198 CMP and the “CMP Incorporated, TdT” value is recorded as 3,102 CMP. For the same compound, on HeLa cell polymerase β, the “effect on HeLa cell polymerase β (in words)” value is recorded as “not effected” and the “CMP Incorporated, Pol β” value was 5,218 cpm. Further, on HeLa cell polymerase γ, the “effect on HeLa cell polymerase γ (in words)” value was “not effected” and the “CMP Incorporated, Pol γ” value is reported as 7,165 CMP. Also, the “EL-4 proliferation (in words)” value in the assay on EL-4 (400 μM, 1% DMSO) is “inhibited”. Besides, the inhibition at 400 µM with EL-4 (Mus musculus, EL4, EL-4, at 72 hours, read-out: maximal growth inhibition) was determined as 80%. Besides, the “growth of HeLa cells (in words)” value in the assay with HeLa cells [5] is listed as “not inhibited”.

`COc1ccc(Nc2cc(=O)[nH]c(=O)[nH]2)cc1` [GW-17E, 6-(p-methoxyanilo)uracil]: on HeLa cell polymerase α [3], the “effect on HeLa cell polymerase α (in words)” value was “not effected” and the “CMP Incorporated, Pol α” value is given as 15,217 CMP. Moreover, in assay [4], the “CMP 3H--dGMP inc.” value is on record as 6,980 CMP and the “CMP Incorporated, TdT” value is 4,964 CMP. Further, at HeLa cell polymerase β, the “effect on HeLa cell polymerase β (in words)” value is “not effected” and the “CMP Incorporated, Pol β” value is listed as 5,492 cpm. On HeLa cell polymerase γ, the “effect on HeLa cell polymerase γ (in words)” value is given as “not effected” and the “CMP Incorporated, Pol γ” value is 7,223 CMP.

Regarding `O=c1cc(NCC2CCCCC2)[nH]c(=O)[nH]1` [GW-20B, 6-(cyclohexylmethylamino)uracil], the “CMP 3H--dGMP inc.” value in assay [4] is on record as 11,296 CMP.

On to `O=c1cc(Nc2cccc3ccccc23)[nH]c(=O)[nH]1` [GW-28A, 6-(d-naphthylamino)uracil], for which the “CMP 3H--dGMP inc.” value in assay [4] was 12,038 CMP.

`O=c1cc(NC2CCCCC2)[nH]c(=O)[nH]1` [GW-18B, 6-(cyclohexylamino)uracil]: in assay [4], the “CMP 3H--dGMP inc.” value is reported as 13,442 CMP.

For `O=c1cc(Nc2ccc3c(c2)CCC3)[nH]c(=O)[nH]1` [GW-17B, 6-(3',4'-trimethyleneanilino)uracil], the “CMP 3H--dGMP inc.” value in assay [4] was 12,383 CMP.

For `CC(C)CCNc1cc(=O)[nH]c(=O)[nH]1` [GW-22A, 6-(iso-pentylamino)uracil], in assay [4], the “CMP 3H--dGMP inc.” value is reported as 12,005 CMP.

For `CC(=O)Nc1ccc(CNc2cc(=O)[nH]c(=O)[nH]2)cc1` [GW-16C, 6-(p-acetamidobenzylamino)uracil], in assay [4], the “CMP 3H--dGMP inc.” value is 14,160 CMP.

As to `O=c1cc(Nc2ccccc2)[nH]c(=O)[nH]1` [GW-9E, 6-anilinouracil], the “CMP 3H--dGMP inc.” value in assay [4] is recorded as 10,350 CMP.

For `O=c1cc(NCc2ccccc2)[nH]c(=O)[nH]1` [GW-7B, 6-(benzylamino)uracil], the “CMP 3H--dGMP inc.” value in [4] is 12,780 CMP.

In the case of `O=c1cc(Nc2ccc(O)cc2)[nH]c(=O)[nH]1` [GW-22E, 6-(p-hydroxyanilino)uracil], in assay [4], the “CMP 3H--dGMP inc.” value is 21,760 CMP.

Regarding `O=c1cc(NCCc2ccccc2)[nH]c(=O)[nH]1` [GW-7C, 6-(phenethylamino)uracil], in assay [4], the “CMP 3H--dGMP inc.” value is 12,391 CMP.

As for `Cc1ccc(Nc2cc(=O)[nH]c(=O)[nH]2)cc1CO` [GW-28D], the “TdT inhibition (in words)” value in assay [4] is reported as “not inhibitory”.

For the compound `CCCCCNc1cc(=O)[nH]c(=O)[nH]1` [GW-18E, 6-(n-pentylamino)uracil], in assay [4], the “CMP 3H--dGMP inc.” value was 11,674 CMP.

Regarding `O=c1cc(Nc2cccc(O)c2)[nH]c(=O)[nH]1` [GW-23A], in assay [4], the “TdT inhibition (in words)” value is given as “not inhibitory”.

For “6-(p-methoxybenzyl)-6-aminouracil [GW-33E]”, in assay [4], the “CMP 3H--dGMP inc.” value is 11,988 CMP.

For the compound `CCCCc1ccc(Nc2cc(=O)[nH]c(=O)[nH]2)cc1` [GW-11D, 6-(p-butylanilino)uracil], the “CMP 3H--dGMP inc.” value in assay [4] was 10,925 CMP.
